Data reported in ChEMBL document CHEMBL1135472 (J Med Chem, 2002).
Values belong to the compound of their own block, whether it stands above or below them. The source made the active and inactive calls. The rule behind the calls is not given here.

How the values were obtained:
[1] = target: T1, Polyunsaturated fatty acid lipoxygenase ALOX15 (Homo sapiens, UniProt P16050); assay: Concentration that cause 50% activation of human reticulocyte 15-lipoxygenase (15-HLO)
T1 sequence (P16050 whole entry): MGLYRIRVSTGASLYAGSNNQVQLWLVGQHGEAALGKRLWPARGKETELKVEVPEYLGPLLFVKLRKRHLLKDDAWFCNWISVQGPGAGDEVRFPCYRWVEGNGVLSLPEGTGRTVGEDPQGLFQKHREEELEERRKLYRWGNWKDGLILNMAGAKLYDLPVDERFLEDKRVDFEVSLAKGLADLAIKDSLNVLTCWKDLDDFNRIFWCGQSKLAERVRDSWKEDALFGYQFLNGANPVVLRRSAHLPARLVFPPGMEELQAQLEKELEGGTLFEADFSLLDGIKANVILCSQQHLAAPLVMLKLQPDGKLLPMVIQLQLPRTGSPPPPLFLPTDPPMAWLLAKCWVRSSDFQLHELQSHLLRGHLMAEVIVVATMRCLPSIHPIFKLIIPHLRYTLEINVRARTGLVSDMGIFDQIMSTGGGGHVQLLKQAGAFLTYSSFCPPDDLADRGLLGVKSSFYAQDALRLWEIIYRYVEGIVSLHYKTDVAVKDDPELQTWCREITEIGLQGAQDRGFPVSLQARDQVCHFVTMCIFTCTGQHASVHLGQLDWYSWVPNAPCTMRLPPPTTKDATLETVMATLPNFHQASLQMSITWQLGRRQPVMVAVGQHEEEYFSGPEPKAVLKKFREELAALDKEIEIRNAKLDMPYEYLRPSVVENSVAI

[2] = target: T2, Polyunsaturated fatty acid lipoxygenase ALOX15 (Homo sapiens) (UniProt P16050); assay: Compound was evaluated for the percent increase in activation concentration of human reticulocyte 15-lipoxygenase (15-HLO)
T2 sequence (whole entry): T1 sequence (P16050 whole entry)

[3] = target: T3, Polyunsaturated fatty acid lipoxygenase ALOX12 (Homo sapiens) (UniProt P18054); assay: % inhibition against human platelet 12-lipoxygenase (12-HLO); settings: concentration not given here
T3 sequence (whole entry): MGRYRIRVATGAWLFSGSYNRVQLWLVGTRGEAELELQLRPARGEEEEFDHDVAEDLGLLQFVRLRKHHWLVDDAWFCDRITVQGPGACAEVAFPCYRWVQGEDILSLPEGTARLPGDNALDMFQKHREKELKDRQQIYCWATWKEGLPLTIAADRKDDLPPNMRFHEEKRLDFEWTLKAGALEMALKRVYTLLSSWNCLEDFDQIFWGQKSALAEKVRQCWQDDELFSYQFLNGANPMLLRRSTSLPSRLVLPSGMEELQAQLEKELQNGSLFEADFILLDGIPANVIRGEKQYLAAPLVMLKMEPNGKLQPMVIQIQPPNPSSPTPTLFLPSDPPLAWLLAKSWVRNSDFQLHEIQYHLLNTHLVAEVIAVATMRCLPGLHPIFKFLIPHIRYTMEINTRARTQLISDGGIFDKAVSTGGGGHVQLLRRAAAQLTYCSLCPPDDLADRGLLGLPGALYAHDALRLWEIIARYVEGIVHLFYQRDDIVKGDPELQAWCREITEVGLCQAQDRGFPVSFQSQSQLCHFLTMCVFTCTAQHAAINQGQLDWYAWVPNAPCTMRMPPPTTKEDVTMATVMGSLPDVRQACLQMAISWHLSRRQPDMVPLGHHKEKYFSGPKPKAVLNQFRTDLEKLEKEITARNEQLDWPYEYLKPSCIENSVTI

[4] = target: T4, Seed linoleate 13S-lipoxygenase-1 (Glycine max) (UniProt P08170); assay: % inhibition against soybean 1-lipoxygenase (SLO)
T4 sequence (whole entry): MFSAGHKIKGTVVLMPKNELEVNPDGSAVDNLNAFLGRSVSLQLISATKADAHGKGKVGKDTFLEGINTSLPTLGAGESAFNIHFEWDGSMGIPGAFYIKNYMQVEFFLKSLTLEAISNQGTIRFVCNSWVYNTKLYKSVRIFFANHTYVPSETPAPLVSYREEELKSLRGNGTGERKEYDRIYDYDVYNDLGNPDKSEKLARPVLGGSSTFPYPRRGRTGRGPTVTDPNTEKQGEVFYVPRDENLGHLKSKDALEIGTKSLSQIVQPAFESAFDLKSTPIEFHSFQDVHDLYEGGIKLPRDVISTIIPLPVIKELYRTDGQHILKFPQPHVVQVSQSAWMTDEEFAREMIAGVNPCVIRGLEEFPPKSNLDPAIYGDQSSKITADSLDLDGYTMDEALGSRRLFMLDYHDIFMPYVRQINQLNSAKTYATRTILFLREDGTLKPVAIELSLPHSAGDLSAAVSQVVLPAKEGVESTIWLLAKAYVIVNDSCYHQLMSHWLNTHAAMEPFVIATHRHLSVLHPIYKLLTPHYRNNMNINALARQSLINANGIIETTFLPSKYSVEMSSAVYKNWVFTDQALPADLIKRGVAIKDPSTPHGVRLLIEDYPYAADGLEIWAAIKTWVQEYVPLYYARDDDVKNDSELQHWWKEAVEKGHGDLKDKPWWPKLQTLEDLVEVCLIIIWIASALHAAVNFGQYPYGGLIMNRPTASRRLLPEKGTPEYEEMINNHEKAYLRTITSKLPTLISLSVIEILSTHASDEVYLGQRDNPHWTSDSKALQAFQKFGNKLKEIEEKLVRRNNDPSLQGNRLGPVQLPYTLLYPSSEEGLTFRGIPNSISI

[5] = target: T2, Polyunsaturated fatty acid lipoxygenase ALOX15 (Homo sapiens); assay: Inhibitory activity against human reticulocyte 15-lipoxygenase (15-HLO); settings: concentration not given here
[6] = target: T5, Polyunsaturated fatty acid lipoxygenase ALOX12 (Homo sapiens, UniProt P18054); assay: Inhibitory activity against human platelet 12-lipoxygenase (12-HLO)
T5 sequence (P18054 whole entry): T3 sequence (whole entry)

[7] = target: T6, Seed linoleate 13S-lipoxygenase-1 (Glycine max, UniProt P08170); assay: Inhibitory activity against soybean 1-lipoxygenase (SLO)
T6 sequence (P08170 whole entry): T4 sequence (whole entry)

[8] = target: T2, Polyunsaturated fatty acid lipoxygenase ALOX15 (Homo sapiens); assay: Inhibitory activity against human reticulocyte 15-lipoxygenase (15-HLO); NI is no inhibition
[9] = target: T3, Polyunsaturated fatty acid lipoxygenase ALOX12 (Homo sapiens); assay: percent inhibition against human platelet 12-lipoxygenase (12-HLO); NI is no inhibition
[10] = target: T4, Seed linoleate 13S-lipoxygenase-1 (Glycine max); assay: percent inhibition against soybean 1-lipoxygenase (SLO);NI is no inhibition
[11] = Inhibition ratio of human reticulocyte 15-lipoxygenase (15-HLO)/ human platelet 12-lipoxygenase (12-HLO); NI is no inhibition

SMILES: CCCC(=O)Oc1ccc(C[C@@H](C)[C@@H](C)Cc2ccc(OC(=O)CCC)c(OC(=O)CCC)c2)cc1OC(=O)CCC
AC50 [1]: 300 nM
activation [2]: 77%
inhibition [3]: 0%
inhibition [4]: 0%

SMILES: C[C@H](Cc1ccc(OCOC(=O)C(C)(C)C)c(OCOC(=O)C(C)(C)C)c1)[C@@H](C)Cc1ccc(OCOC(=O)C(C)(C)C)c(OCOC(=O)C(C)(C)C)c1
inhibition [5]: 0%
inhibition [3]: 0%
inhibition [4]: 0%

SMILES: CC(=O)Oc1ccc(C[C@@H](C)[C@@H](C)Cc2ccc(OC(C)=O)c(OC(C)=O)c2)cc1OC(C)=O
inhibition [5]: 0%
inhibition [3]: 0%
inhibition [4]: 0%

SMILES: C[C@H](Cc1cc(O)c(O)cc1Br)[C@@H](C)Cc1cc(O)c(O)cc1Br
IC50 [6]: 430 nM
IC50 [7]: 57 nM

SMILES: COc1cc(C[C@@H](C)[C@@H](C)Cc2ccc(O)c(O)c2)ccc1O
IC50 [6]: 14000 nM
IC50 [7]: 170 nM

SMILES: C[C@H](Cc1cc(O)c(O)cc1[N+](=O)[O-])[C@@H](C)Cc1cc(O)c(O)cc1[N+](=O)[O-]
IC50 [6]: 360 nM

SMILES: CCC(=O)Oc1ccc(C[C@@H](C)[C@@H](C)Cc2ccc(OC(=O)CC)c(OC(=O)CC)c2)cc1OC(=O)CC
AC50 [1]: 300 nM
activation [2]: 22%
inhibition [3]: 0%
inhibition [4]: 0%

SMILES: CC(=O)c1cc(O)c(O)cc1C[C@@H](C)[C@@H](C)Cc1cc(O)c(O)cc1C(C)=O
IC50 [6]: 26000 nM

SMILES: CCCCCC(=O)Oc1ccc(C[C@@H](C)[C@@H](C)Cc2ccc(OC(=O)CCCCC)c(OC(=O)CCCCC)c2)cc1OC(=O)CCCCC
AC50 [1]: 200 nM
activation [2]: 70%
inhibition [3]: 0%
inhibition [4]: 0%

SMILES: C[C@H](Cc1ccc(O)c(O)c1)[C@@H](C)Cc1ccc2c(c1)OC(C)(C)O2
IC50 [6]: 2200 nM
IC50 [7]: 140 nM

SMILES: C[C@H](Cc1cc(O)c(O)cc1Cl)[C@@H](C)Cc1cc(O)c(O)cc1Cl
IC50 [6]: 360 nM
IC50 [7]: 65 nM

SMILES: CC(C)C(=O)Oc1ccc(C[C@@H](C)[C@@H](C)Cc2ccc(OC(=O)C(C)C)c(OC(=O)C(C)C)c2)cc1OC(=O)C(C)C
AC50 [1]: 500 nM
activation [2]: 70%
inhibition [3]: 0%
inhibition [4]: 0%

More lines, now with the values ahead:

inhibition [8]: inactive
inhibition [9]: inactive
inhibition [10]: inactive
inhibition [11]: inactive
SMILES: COc1cc(C[C@@H](C)[C@@H](C)Cc2cc(OC)c(OC)cc2C(C)=O)c(C(C)=O)cc1OC

inhibition [5]: 0%
inhibition [3]: 0%
inhibition [4]: 0%
SMILES: CCC(=O)Oc1cc(C[C@@H](C)[C@@H](C)Cc2cc(OC(=O)CC)c(OC(=O)CC)cc2[N+](=O)[O-])c([N+](=O)[O-])cc1OC(=O)CC

inhibition [8]: inactive
inhibition [9]: inactive
inhibition [10]: inactive
inhibition [11]: inactive
SMILES: COc1cc(Br)c(C[C@@H](C)[C@@H](C)Cc2cc(OC)c(OC)cc2Br)cc1OC

inhibition [8]: inactive
inhibition [9]: inactive
inhibition [10]: inactive
inhibition [11]: inactive
SMILES: COc1ccc(C[C@@H](C)[C@@H](C)Cc2ccc(OC)c(OC)c2)cc1OC

inhibition [8]: inactive
inhibition [9]: inactive
inhibition [10]: inactive
inhibition [11]: inactive
SMILES: COc1cc(Cl)c(C[C@@H](C)[C@@H](C)Cc2cc(OC)c(OC)cc2Cl)cc1OC

inhibition [8]: inactive
inhibition [9]: inactive
inhibition [10]: inactive
inhibition [11]: inactive
SMILES: COc1cc(C[C@@H](C)[C@@H](C)Cc2cc(OC)c(OC)cc2NC(C)=O)c(NC(C)=O)cc1OC

inhibition [5]: 0%
inhibition [3]: 0%
inhibition [4]: 0%
SMILES: COc1cc(N)c(C[C@@H](C)[C@@H](C)Cc2cc(OC)c(OC)cc2N)cc1OC

inhibition [5]: 0%
inhibition [3]: 0%
inhibition [4]: 0%
SMILES: COc1cc(C[C@@H](C)[C@@H](C)Cc2cc(OC)c(OC)cc2[N+](=O)[O-])c([N+](=O)[O-])cc1OC

IC50 [6]: 3100 nM
IC50 [7]: 140 nM
SMILES: CCc1cc(O)c(O)cc1C[C@@H](C)[C@@H](C)Cc1cc(O)c(O)cc1CC
